The values below come from US8796246B2, “9, 10-secopregnane derivative and pharmaceutical” (Nippon Shinyaku Co., Ltd., priority 2006, dated 2014).

Each structure is given as a SMILES string.

Series [1] can be described thus: Action to increase the urinary excretion of calcium (2), intravenous administration. In kind it is in vivo, SD male rats. The settings on record: intravenous 22.4 nmol/kg. Here is the method:
The compound of the invention mentioned in Example 42, 61 or 66, or maxacalcitol in saline containing 0.1% Triton X 100/5.6% DMSO (22.4 nmol/kg) was subjected to an intravenous administration to SD male rats (7 weeks of age) Saline containing 0.1% Triton X 100/5.6% DMSO was administered to a control group. The calcium concentration in urine collected within 24 hours after the administration was measured and the urinary excretion of calcium ([calcium concentration in urine]×[amount of urine]) and the ratio of urinary excretion of calcium based on the control group ([calcium amount in urine in administration of the test compound]/[calcium amount in urine in the control group]) were calculated.

For series [2], the system named is human acute myelogenous leukemia cell line HL-60. Put plainly: Ability to induce differentiation of HL-60 cells (oxygen radical production after phorbol ester, WST-1). In kind it is cell-based. To be noted: Homo sapiens, 72 hours incubation, then WST-1 and phorbol 12,13-didecanoate for 4 hours, absorbance at 450 nm.
The nature of series [3]: Metabolic rate in human liver microsome. To be noted: pooled human liver microsome 1 mg/mL protein, NADPH-regenerating system, 37° C., 2-60 minutes, HPLC. In kind it is in vitro ADME.
Series [4] in a line: Action to increase calcium concentration in serum, percutaneous administration. It counts as in vivo, SD male rats. Here is the method: The compound of the invention mentioned in Example 1 or maxacalcitol in ethanol containing 0.3% DMSO was repeatedly subjected to percutaneous administration (33 μg/200 μL/kg/day) once a day for 7 days onto the back of SD male rats (7 weeks of age). Ethanol containing 0.3% DMSO was administered to a control group. At 24 hours after the final administration, blood was collected and the calcium concentration in serum was measured.

Series [5] is described as follows: Action to increase the urinary excretion of calcium (1), percutaneous administration. It counts as in vivo, SD male rats. To be noted: percutaneous 10 μg/200 μL/kg/day once a day for 4 days. On the procedure: The compound of the invention mentioned in Example 1, 36, 43, 47, 48, 55 or 70 or maxacalcitol in ethanol containing 0.5% DMSO was repeatedly subjected to a percutaneous administration (10 μg/200 μL/kg/day) once a day for 4 days onto the back of SD male rats (7 weeks of age). Ethanol containing 0.5% DMSO was administered to a control group. The calcium concentration in urine collected every 24 hours was measured and multiplied by the amount of urine to calculate the urinary excretion of calcium. The calcium excretion in urine shown in Table 3 indicates the accumulated calcium excretion from 0 to 24 hours, from 0 to 48 hours, from 0 to 72 hours, and from 0 to 96 hours.

Regarding `C=C1/C(=C\C=C2/CCC[C@]3(C)[C@@H]([C@H](C)OCCC(C)(C)O)CC[C@@H]23)C[C@@H](O)C[C@@H]1O` [Maxacalcitol, (1S,3R,20S)-20-(3-hydroxy-3-methylbutyloxy)-9,10-secopregna-5Z,7E,10(19)-trien-1,3-diol, reference compound], the “Calcium in Urine” value in series [1] (urine collected within 24 hours after administration) was found to be 2.3 mg. For the same compound, the “Ratio of Calcium in Urine (to control)” value in series [1] (urine within 24 hours, test compound/control group) came out at 460%. In series [2], this compound yielded an EC50 of 5.4 nM. Further, in series [3], the “Metabolic Rate” value was 10 pmol/min/mg. Besides, the “effect on the calcium concentration in serum (in words)” value in series [4] (percutaneous 33 μg/200 μL/kg/day for 7 days) is listed as “increased the calcium concentration in serum”. The “Serum Calcium Concentration” value in series [4] (percutaneous 33 μg/200 μL/kg/day once a day for 7 days, blood 24 hours after final administration) turned out to be 15.0 mg/dL. Moreover, the “Calcium in Urine within 24 hours” value in series [5] (accumulated excretion 0 to 24 hours) was determined as 2.6 mg. Moreover, the “Calcium in Urine within 48 hours” value in series [5] (accumulated excretion 0 to 48 hours) worked out at 4.5 mg. In addition, the “Calcium in Urine within 72 hours” value in series [5] (accumulated excretion 0 to 72 hours) turned out to be 8.5 mg. The “Calcium in Urine within 96 hours” value in series [5] (accumulated excretion 0 to 96 hours) is recorded as 13.9 mg.
